Test results from US20150342847A1, “NOVEL DERIVATIVES OF SINAPINIC ACID AND THE COSMETIC OR PHARMACEUTICAL USES THEREOF” (BASF Beauty Care Solutions France SAS, priority 2012, published 2015).

Experiments:
melanocytes = assay: Cytotoxicity, MTT cell viability on melanocytes; assay type: cell-based; settings: for Percentage cell viability, Mean: MTT
Method: Study of cell viability following application of the hydroxytyrosol dihydrosinapate of the invention of formula (IIa) to keratinocytes or melanocytes.
The cells (keratinocytes or melanocytes) were cultured in a 96-well plate at 37° C. under 5% CO2 in an appropriate medium until confluence. The medium was withdrawn and then an amount of 200 μL of a 0.5 mg/mL MTT solution was added. The plates were then incubated at 37° C. for 3 hours, after which the MTT solution was withdrawn from each well and replaced with DMSO. The plates were agitated for 15 minutes, and the optical density was measured at 550 nm.
The negative cytotoxicity control is PBS. The positive cytotoxicity control is 0.25% SDS. 0.1% DMSO was used as control.

[1] = TBARS test, lipid peroxidation of UVB-irradiated liposomal suspension; settings: UVB 2 hours
Method: Study of the radical scavenger activity of the hydroxytyrosol dihydrosinapate of the invention of formula (IIa) and of the prior-art ferulic acid derivative by the TBARS test.
Two identical 96-well plates are produced according to a defined plate plan. 50 μL of a sample mixture prepared by diluting a solution of a test compound or of a negative control (vehicle medium without test compound) or of a positive control (D-L-alpha-tocopherol) to 1/10 in a liposomal suspension are distributed per well, in quadruplicate. One of the two plates is irradiated with UVB for 2 hours. The other plate, serving as a control, is incubated in the absence of light and at ambient temperature for 2 hours.
At the end of irradiation, an amount of 100 μL of 20% trichloroacetic acid solution was added per well, followed by an amount of 34 μL of 1% thiobarbituric acid solution. The plates are then incubated at 105° C. for 25 minutes.
The contents of each well are centrifuged at 5700 rpm for 5 minutes, and then an amount of 100 μL of supernatant was deposited in new plates, according to the same plan, and the absorbance was read off at 530 nm.
The positive experimental control was D-L-alpha-tocopherol, at a concentration of 1%, for which a percentage inhibition of 80% was obtained.

[2] = tested on: melanocytes of murine line B16; assay: Inhibition of melanin production in B16 melanocytes stimulated with an α-MSH derivative; assay type: cell-based; settings: Mus musculus, B16 cells, 72 hours, read-out: % inhibition of melanin +/− standard deviation
Method: Determination of the percentage inhibition of melanin production by the hydroxytyrosol dihydrosinapate of the invention of formula (IIa) or the ferulic acid derivative of the prior art, by quantitative analysis of the total melanin synthesized by melanocytes of murine line B16 following application of the compound under test.
Melanocytes (B16 cells) are cultured for 24 hours in a 96-well plate in an appropriate medium. […] After 72 hours of incubation, the culture medium is withdrawn, and total melanin is quantified by measuring the absorbance at 405 nm against a standard range of synthetic melanin from 0.78 to 100 μg/mL.
The results are expressed as percentage inhibition of melanin production relative to the negative control, and are presented in Table 1.
The inhibitory activity on melanin production of the product tested is calculated as a percentage according to the following formula:
% inhibition=[(mean stimulated control−mean basal control)−(sample value−mean basal control)]/(mean stimulated control−mean basal control)×100
where: • Mean stimulated control: mean of the values obtained with a medium supplemented with an alpha-MSH derivative • Sample value: value obtained with the compound under test • Mean basal control: Mean of the values obtained with a medium not supplemented with an alpha-MSH derivative

For `COc1cc(CCC(=O)OCCc2ccc(O)c(O)c2)cc(OC)c1O` [Hydroxytyrosol dihydrosinapate (IIa), hydroxytyrosol dihydrosinapate], the “Percentage cell viability, Mean” value (melanocytes; 1 μM) was 109.67%, the “Percentage cell viability, Mean” value (melanocytes; 10 μM) was 107.53% and the “Percentage cell viability, Mean” value (melanocytes; 100 μM) was 111.30%. The “cytotoxicity (in words)” value (melanocytes; 10^−6, 10^−5 and 10^−4 M, tolerated threshold 75% viability) was “not cytotoxic”, the “% inhibition of lipid peroxidation” value ([1]; 1 μM after dilution to 1/10th in the liposomal suspension) was −10.58% and the “% inhibition of lipid peroxidation” value ([1]; 5 μM after dilution to 1/10th in the liposomal suspension) was 8.21%. The “% inhibition of lipid peroxidation” value ([1]; 30 μM after dilution to 1/10th in the liposomal suspension) was 7.14%, the “% inhibition of lipid peroxidation” value ([1]; 50 μM after dilution to 1/10th in the liposomal suspension) was 19.12% and the “% inhibition of lipid peroxidation” value ([1]; 100 μM after dilution to 1/10th in the liposomal suspension) was 41.95%. For the same molecule, the “% inhibition of lipid peroxidation” value ([1]; 1000 μM after dilution to 1/10th in the liposomal suspension) was 77.04%, the inhibition at 10 µM ([2]; 10 μM) was 75% and the inhibition at 30 µM ([2]; 30 μM) was 106%. The inhibition at 50 µM ([2]; 50 μM) was 115%.
